Series [1] deals with human erythrocytes. In words: Human red blood cell hemolysis. It is filed as cell-based. As to conditions: 100 µM. The method, then: With a few minor modifications, red blood cell hemolysis was carried out as previously described ([21]). On a 96-well microtiter plate, 100, 10, 1, and 0 µM NCRs, NCR094 and NCR992 were placed in each well, and […] of 1× PBS was carried out across the plate. Each well received an equivalent volume of 1% human erythrocytes that had been re-suspended in PBS after being washed once with PBS (5 minutes by centrifugation at 3,000 × g to prevent non-specific red blood cell lysis). The plate was then incubated at 37°C for 24 hrs.
As negative and positive controls for hemolysis, respectively, PBS alone and 1% sodium hypochlorite alone were utilized. At a wavelength of 405 nm, hemoglobin release was measured, and the hemolytic capability was expressed as a percentage of the sodium hypochlorite control (100%). The normalization equation normalization = NCR average – negative control average was used to compute the hemolysis percentage. Hemolysis percentage = normalization of NCRs ÷ average of positive control × 100. The hemolysis of 20% and above was considered as toxic to human red blood cells as reported previously ([22]). The mean values and standard deviation (SD) for each assay were carried out in triplicate and repeated three times.
Fig 6 The hemolysis % of the NCRs (NCR094 and NCR992) toward human red blood cells. One percent human red blood cells were treated with 100 µM of the NCRs. (A) NCR094 WT, NCR094.1, NCR094.2, and NCR094.3. (B) NCR992 WT, NCR992.1, NCR992.2, and NCR992 for 16 hrs without shaking. One hundred […] of supernatants was transferred into a new 96-well plate, and the absorbance was measured using a plate reader at 405 nm wavelength. Polymyxin B treatment was […] control. The results were represented as average of the % hemolysis and standard deviations from three independent experiments.
Figure S.1. Dose-dependent hemolysis assay for the NCR collection used in this study.
1% Human red blood cells were treated with 10-fold concentration (100, 10, 1, 0 μM) of NCRs A) (NCR094.1, B)
NCR992 WT) C) NCR992.1, D) NCR992.2, and E) NCR992.1for 18 hrs without shaking. […] of supernatants
were transferred into new 96-well plate and the absorbance was measured using a plate reader at 405 nm wavelength.
The results were represented as average of the % hemolysis and error bars were ± SD values from three independent
(also on this page, place not known: 10100 % of Toxicity 10100 80% of Toxicity 10100 % of Toxicity 10100 % of Toxicity 10100 S- % of Toxicity A)

In series [2] the test system is K. pneumoniae ATCC700603. It is filed as cell-based, Klebsiella pneumoniae. The method, then:
(§1) Bacterial strains used in the experiment were MRSA ATCC29213 and K. pneumoniae ATCC700603. Three NCRs, NCR094 (GenBank# KEH42094.1), NCR992 (GenBank# KEH8992.1), and NCR888 (GenBank# KEH37888.1), and designed derivatives were supplied from GenScript (United States). MRSA and K. pneumoniae were streaked for colonies on blood agar plates and incubated at 37°C for 18–24 hrs. MRSA and K. pneumoniae’s colonies were cultured in cation-adjusted Mueller–Hinton broth (MHB) media and incubated at 37°C for 18–24 hrs. For the in vitro killing assay and the ex vivo human killing assay, MRSA and K. pneumoniae were cultured on an MHB agar plate for 18 hrs at 37°C.
(§2) A broth microdilution assay in cation-adjusted MHB (MilliporeSigma, United States) was used to determine the minimum inhibitory concentrations (MICs) and the mimium bactericidal concentration (MBCs) of our NCR collection’s NCR094, NCR888, and NCR992. After a final bacterial inoculum of 5 × 10^5 CFU/mL was set and incubated for an overnight period at 37°C, the MIC of the NCRs that prevented MRSA or K. pneumoniae from growing visibly was measured. The MBCs was measured by subculturing the broths used in MIC determination into fresh NCR-free agar plates. The MICs of the NCRs were measured after the NCRs were added to the MRSA or K. pneumoniae cultures and dissolved in sterile distilled water.
The bacterial cultures of MRSA and K. pneumoniae were treated with different concentrations of the synthetic NCRs (MRSA: 25, 12.5, 6.25, 3.125, and 0 µM; K. pneumoniae: 50, 25, 12.5, 6.25, 3.125, and 0 µM). […] Thus, NCR888 in the wild type and the different variants were not included in the downstream assays.

The test system of series [3] is MRSA ATCC29213. Nature of the series: Broth microdilution MIC/MBC. The series is classed as cell-based, Staphylococcus aureus. The settings on record: tested 25, 12.5, 6.25, 3.125 µM; post-18 hrs of treatment. The method, then:
as §1
as §2, with “water. […]” for “water.”

Series [4] deals with K. pneumoniae ATCC700603. The series is classed as cell-based, Klebsiella pneumoniae. The settings on record: human whole blood, 12.5 µM, 18 hrs 37°C; mean of three independent experiments. On the procedure: The whole killing assay was performed as previously described ([19]). Briefly, freshly drawn peripheral venous whole blood was collected on a heparin tube from healthy adult volunteers. To do this, unchallenged blood with and without NCRs at the MIC (blood from the same individuals) was used. Whole blood was then challenged with MRSA or K. pneumoniae ex vivo and incubated for an overnight period at 37°C. Tenfold serial dilution was plated on MH agar media post-18 hrs treatment ([19]). Killing% was calculated as follows: killing% = CFUs for no treatment − CFUs for NCR treatment ÷ […] × 100. Three independent experiments were performed.
The killing effect of NCRs on MRSA and K. pneumoniae was investigated using an ex vivo whole blood killing assay as a preliminary screening method to discover peptides with potential immune-boosting activity. […] The bactericidal ability (killing%) of human whole blood was monitored by counting the CFUs post-18 hrs, and the killing% was calculated.
Fig 2 Whole blood killing assay of NCR094 in the wild type and the derivatives, ex vivo antimicrobial assay. […] CFUs were calculated to estimate the killing percentage. […]
Fig 4 Whole blood killing assay of NCR992 in the wild type and the derivatives, the ex vivo antimicrobial assay. […] CFUs were calculated to estimate the killing percentage. […]

Values after ≈ are worked out from the molar mass of the structure shown. Where a SMILES comes first, the peptide text is derived from it. Where no end group is shown, it is not given here.

Consider `CC(C)C[C@H](NC(=O)[C@@H](N)Cc1ccc(O)cc1)C(=O)N[C@@H](CCCCN)C(=O)N[C@@H](CS)C(=O)N[C@@H](CCCCN)C(=O)N[C@H](C(=O)N[C@H](C(=O)N[C@@H](Cc1c[nH]cn1)C(=O)N[C@@H](CC(=O)O)C(=O)N[C@@H](CS)C(=O)N1CCC[C@H]1C(=O)N[C@@H](CCCCN)C(=O)O)C(C)C)[C@@H](C)O` [NCR094.1] (H-YLKCKTVHDCPK-OH; N-terminus and C-terminus assumed), for which the hemolysis % in series [1] was 49.38%.

For the compound `CC[C@H](C)[C@H](NC(=O)[C@H](CCCCN)NC(=O)[C@@H](NC(=O)[C@H](C)NC(=O)[C@H](CCCNC(=N)N)NC(=O)[C@H](CS)NC(=O)[C@H](Cc1ccc(O)cc1)NC(=O)[C@H](CC(N)=O)NC(=O)CNC(=O)[C@@H](NC(=O)[C@H](CS)NC(=O)[C@H](CCCNC(=N)N)NC(=O)[C@H](Cc1ccc(O)cc1)NC(=O)[C@@H](NC(=O)[C@@H](NC(=O)[C@@H](N)CCC(N)=O)C(C)C)C(C)C)C(C)C)C(C)C)C(=O)N[C@@H](CCCNC(=N)N)C(=O)N[C@@H](CCCNC(=N)N)C(=O)N[C@@H](Cc1c[nH]c2ccccc12)C(=O)N[C@@H](CC(N)=O)C(=O)N[C@@H](CC(C)C)C(=O)NCC(=O)O` [NCR094.2] (H-QVVYRCVGNYCRAVKIRRWNLG-OH; N-terminus and C-terminus assumed), in series [1], the hemolysis % is reported as 8.99%.

In the case of `CC[C@H](C)[C@H](NC(=O)[C@H](CCCCN)NC(=O)[C@@H](NC(=O)[C@H](C)NC(=O)[C@H](CCCNC(=N)N)NC(=O)[C@H](CS)NC(=O)[C@H](Cc1ccc(O)cc1)NC(=O)[C@H](CC(N)=O)NC(=O)CNC(=O)[C@@H](NC(=O)[C@H](CS)NC(=O)[C@H](CCCNC(=N)N)NC(=O)[C@H](Cc1ccc(O)cc1)NC(=O)[C@@H](NC(=O)[C@@H](NC(=O)[C@H](CCC(N)=O)NC(=O)[C@H](CO)NC(=O)[C@H](CCCCN)NC(=O)[C@@H]1CCCN1C(=O)[C@H](CS)NC(=O)[C@H](CC(=O)O)NC(=O)[C@H](Cc1c[nH]cn1)NC(=O)[C@@H](NC(=O)[C@@H](NC(=O)[C@H](CCCCN)NC(=O)[C@H](CS)NC(=O)[C@H](CCCCN)NC(=O)[C@H](CC(C)C)NC(=O)[C@@H](N)Cc1ccc(O)cc1)[C@@H](C)O)C(C)C)C(C)C)C(C)C)C(C)C)C(C)C)C(=O)N[C@@H](CCCNC(=N)N)C(=O)N[C@@H](CCCNC(=N)N)C(=O)N[C@@H](Cc1c[nH]c2ccccc12)C(=O)N[C@@H](CC(N)=O)C(=O)N[C@@H](CC(C)C)C(=O)NCC(=O)O` [NCR094] (H-YLKCKTVHDCPKSQVVYRCVGNYCRAVKIRRWNLG-OH; N-terminus and C-terminus assumed), the “minimum inhibitory concentration (MIC)” value in series [2] (ATCC700603) was found to be 12.5 µM (≈ 52 µg/mL). Besides, the “minimum bactericidal / killing concentration (MBC), complete killing” value in series [2] (ATCC700603, 18 h) came to 25 µM. In series [1], the hemolysis % turned out to be 15.41%.

`CC[C@H](C)[C@H](NC(=O)[C@H](CCSC)NC(=O)CNC(=O)[C@H](Cc1ccccc1)NC(=O)[C@H](CCC(=O)O)NC(=O)[C@H](CS)NC(=O)[C@@H](N)CCSC)C(=O)N[C@@H](CCCNC(=N)N)C(=O)N[C@@H](CCCNC(=N)N)C(=O)N[C@@H](CS)C(=O)O` [NCR992.1] (H-MCEFGMIRRC-OH; N-terminus and C-terminus assumed): the hemolysis % in series [1] is given as 63.67%.

Regarding `CC[C@H](C)[C@H](N)C(=O)N[C@@H](CO)C(=O)N[C@@H](Cc1ccc(O)cc1)C(=O)N[C@@H](CCCCN)C(=O)N[C@@H](CS)C(=O)N[C@@H](CCC(N)=O)C(=O)N[C@@H](CS)C(=O)N[C@@H](Cc1c[nH]cn1)C(=O)N[C@@H](CCC(=O)O)C(=O)N[C@@H](C)C(=O)N[C@@H](Cc1ccc(O)cc1)C(=O)O` [NCR992.2] (H-ISYKCQCHEAY-OH; N-terminus and C-terminus assumed), the hemolysis % in series [1] is recorded as 66.77%.

For the compound “MCWPSFKPRCSNGWCVCDKIMP [NCR888, wild-type nodule-specific cysteine-rich peptide of Medicago truncatula, 22 residues, chemically synthesized]”, the “inhibition or killing of K. pneumoniae (in words)” value in series [2] (tested 50, 25, 12.5, 6.25, 3.125 µM, post-18 hrs of treatment) was “did not inhibit or kill”. Besides, the “inhibition or killing of MRSA (in words)” value in series [3] is “did not inhibit or kill”.

With MSEFGMIRRSISYKSQSHEAY [NCR992.3], the hemolysis % in series [1] is given as 93.34%.

For the compound “YLKSKTVHDSPKSQVVYRSVGNYCRAVKIRRWNLG [NCR094.3]”, the “Killing% of K. pneumoniae ex vivo” value in series [4] is given as “relatively similar killing activity”. Besides, the hemolysis % in series [1] is given as 0.69%.
